Data published in ChEMBL document CHEMBL1201862, “PubChem BioAssay data set” (2004).
Activity calls are given as the source filed them.

How the values were obtained:
[1] = tested on: BJ; assay: BJ-TERT-LT-ST fibroblast viability loss – cell-based, RAS-independent, luminescence, dose response (AID 1935); format: functional; details: Homo sapiens;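 further: BJ fibroblasts immortalized with TERT plus LT and ST oncogenes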
[2] = Luminescence Cell-Based Dose Retest to Confirm Inhibitors of Cancer Stem Cells. [Related pubchem assays (depositor defined):AID2717, AID2721]; format: functional; details: Homo sapiens
[3] = biological target: Heat shock protein HSP 90-alpha (Homo sapiens, UniProt P07900); format: functional, organism-based
[4] = Counterscreen for activators of the function of SWI/SNF related, matrix associated, actin dependent regulator of chromatin, subfamily a, member 2 (SMARCA2, BRM): Luminescence-based cell-based high throughput dose response assay to identify non-selective compounds using the VP16 reporter assay.; format: functional
[5] = tested on: INS1; assay: INS-1E survival protection against cytokine death – cell-based, luminescence, retest, dose response (AID 449756); format: functional; details: Rattus norvegicus;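 further: cell death triggered by IL-1 beta plus TNF-alpha plus IFN-gamma mixture; protective hits raise ATP signal compared with cytokine alone wells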
[6] = DRD fibroblast viability loss – cell-based, non-viral oncogenic, luminescence, dose response (AID 1934); format: functional; details: Homo sapiens
[7] = tested on: BJ; assay: BJ-TERT fibroblast viability loss – cell-based, RAS-independent, luminescence, dose response (AID 1933); format: functional; details: Homo sapiens
[8] = tested on: BJ; assay: growth inhibition of engineered Ras-driven BJ cells – cell-based, alamar blue fluorescence, cherrypicked samples, dose response (AID 2631); format: functional; details: Homo sapiens;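 further: confirmatory dose-response assay in RAS-dependent BJ fibroblasts engineered with TERT, LT and ST, with cytotoxicity read by fluorescence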
[9] = tested on: BJ; assay: cells; format: functional, cell-based; details: Homo sapiens
[10] = biological target: SWI/SNF-related matrix-associated actin-dependent regulator of chromatin subfamily A member 2 (Homo sapiens, UniProt P51531); assay: Luminescence-based cell-based high throughput dose response assay to identify activators of the function of SWI/SNF related, matrix associated, actin dependent regulator of chromatin, subfamily a, member 2 (SMARCA2, BRM).; format: functional
[11] = Luminescence Cell-Based Dose Response HTS to Identify Inhibitors of 5'UTR Stem-Loop Driven Prion Protein mRNA Translation in H4 Neuroglioblastoma Cells. [Related pubchem assays: 1827 (Project Summary), 1813 (Primary HTS)]; format: functional
[12] = Counterscreen for […] of the human trace amine associated receptor 1 (TAAR1): Fluorescence-based cell-based high throughput dose response assay to identify nonselective Ga16 agonists.; format: functional
[13] = biological target: T1, Trace amine-associated receptor 1 (Homo sapiens, UniProt Q96RJ0); assay: Fluorescence-based cell-based high throughput dose response assay to identify antagonists of the human trace amine associated receptor 1 (TAAR1).; format: functional
T1 sequence (Q96RJ0 whole entry): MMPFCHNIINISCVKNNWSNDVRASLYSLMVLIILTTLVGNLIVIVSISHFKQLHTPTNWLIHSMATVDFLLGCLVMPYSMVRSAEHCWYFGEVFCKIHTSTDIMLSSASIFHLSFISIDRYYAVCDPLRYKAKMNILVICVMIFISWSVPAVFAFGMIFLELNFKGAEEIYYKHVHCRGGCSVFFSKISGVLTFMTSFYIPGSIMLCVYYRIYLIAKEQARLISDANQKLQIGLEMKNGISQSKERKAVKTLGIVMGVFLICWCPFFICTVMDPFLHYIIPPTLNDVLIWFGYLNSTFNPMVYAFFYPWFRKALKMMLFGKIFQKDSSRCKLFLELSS

[14] = luciferase reporter signal suppression in cells – H4 neuroglioma cells, luminescence, dose response (AID 1990); format: functional, cell-based
[15] = biological target: T1, Trace amine-associated receptor 1; assay: Counterscreen for antagonists of the human trace amine associated receptor 1 (hTAAR1): Fluorescence-based cell-based high throughput dose response assay to identify TAAR1 Agonists.; format: functional
[16] = Counterscreen for antagonists of the human trace amine associated receptor 1 (hTAAR1): Fluorescence-based cell-based high throughput dose response assay to identify nonselective Ga16 antagonists.; format: functional
[17] = alpha-synuclein stem-loop luciferase translation blockers – H4 neuroglioma cells, luminescence, confirmation (AID 1988); format: functional, cell-based
[18] = cell viability loss, ATP luminescence – CellTiter-Glo, 24 h, powder samples, set 7, cytotoxicity control for SR-BI HDL uptake inhibitor project, dose response (AID 624026); format: functional, cell-based
[19] = biological target: T2, Scavenger receptor class B member 1 (Mus musculus, UniProt Q61009); assay: mouse SR-BI DiI-HDL transfer blockers – ldlA[mSR-BI] CHO cells, fluorescence plate reader, dry powder, set 9, dose response (AID 623880); format: functional, cell-based
[20] = biological target: T2, Scavenger receptor class B member 1; assay: blockers of DiI-HDL lipid transfer via SR-BI – cell-based, ldlA[mSR-BI] CHO, DiI fluorescence, dry powder, set 10, dose response (AID 624029); format: functional
[21] = tested on: A549; assay: viability loss in A549 cells – cell-based, plate reader, cherry-pick samples, cytotoxicity control, dose response (AID 687028); format: functional; details: Homo sapiens
[22] = biological target: T3, Short transient receptor potential channel 4 (Mus musculus, UniProt Q9QUQ5); assay: calcium entry via TRPC4 opening agents – cell-based, HEK293 TRPC4/mu-opioid, Fluo-4 calcium, dose response (AID 434937); format: functional
T3 sequence (Q9QUQ5 whole entry): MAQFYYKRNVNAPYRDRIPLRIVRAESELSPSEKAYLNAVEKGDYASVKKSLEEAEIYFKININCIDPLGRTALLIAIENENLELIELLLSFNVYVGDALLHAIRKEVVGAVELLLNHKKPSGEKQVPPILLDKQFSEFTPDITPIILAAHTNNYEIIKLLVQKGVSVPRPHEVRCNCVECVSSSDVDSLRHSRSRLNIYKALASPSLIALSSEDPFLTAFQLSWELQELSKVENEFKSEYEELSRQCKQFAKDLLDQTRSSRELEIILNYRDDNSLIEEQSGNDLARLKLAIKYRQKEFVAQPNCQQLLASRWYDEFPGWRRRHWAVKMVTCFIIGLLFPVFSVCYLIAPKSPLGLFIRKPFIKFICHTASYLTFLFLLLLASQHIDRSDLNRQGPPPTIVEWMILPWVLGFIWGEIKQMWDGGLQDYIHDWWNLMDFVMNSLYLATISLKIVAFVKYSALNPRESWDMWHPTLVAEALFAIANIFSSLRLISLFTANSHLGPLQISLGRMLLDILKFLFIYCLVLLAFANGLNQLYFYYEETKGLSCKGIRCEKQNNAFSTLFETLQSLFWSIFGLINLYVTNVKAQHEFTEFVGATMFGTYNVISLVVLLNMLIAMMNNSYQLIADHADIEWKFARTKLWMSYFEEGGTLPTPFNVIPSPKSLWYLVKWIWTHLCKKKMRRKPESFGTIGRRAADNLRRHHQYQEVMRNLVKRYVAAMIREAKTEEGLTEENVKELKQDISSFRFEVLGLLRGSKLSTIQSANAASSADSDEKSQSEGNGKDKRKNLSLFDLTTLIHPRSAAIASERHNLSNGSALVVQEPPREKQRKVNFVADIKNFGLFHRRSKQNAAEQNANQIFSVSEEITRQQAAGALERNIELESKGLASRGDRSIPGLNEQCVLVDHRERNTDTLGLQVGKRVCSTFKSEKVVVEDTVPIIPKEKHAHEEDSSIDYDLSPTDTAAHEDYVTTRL

[23] = HGIII-sPLA2 enzyme inhibition potency – biochemical, QFRET, IC50, dose response (AID 743457);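 further: green fluorescence rise as the enzyme cleaves BODIPY PC-A2 in liposomes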
[24] = tested on: Streptococcus sp. 'group A'; assay: Streptococcus pyogenes SK(-)GAS viability under kanamycin – luminescence, BacTiterGlo, confirmation, counter-screen for streptokinase expression inhibitor project, dose response (AID 1900); format: functional, organism-based
[25] = tested on: Streptococcus; assay: GAS UMAA2166 growth inhibition – luminescence, BacTiterGlo, counter-screen for streptokinase expression inhibitor project, dose response (AID 1915); format: functional, organism-based;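 further: potency for reduction of bacterial viability or growth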

T2 sequence (Q61009 whole entry): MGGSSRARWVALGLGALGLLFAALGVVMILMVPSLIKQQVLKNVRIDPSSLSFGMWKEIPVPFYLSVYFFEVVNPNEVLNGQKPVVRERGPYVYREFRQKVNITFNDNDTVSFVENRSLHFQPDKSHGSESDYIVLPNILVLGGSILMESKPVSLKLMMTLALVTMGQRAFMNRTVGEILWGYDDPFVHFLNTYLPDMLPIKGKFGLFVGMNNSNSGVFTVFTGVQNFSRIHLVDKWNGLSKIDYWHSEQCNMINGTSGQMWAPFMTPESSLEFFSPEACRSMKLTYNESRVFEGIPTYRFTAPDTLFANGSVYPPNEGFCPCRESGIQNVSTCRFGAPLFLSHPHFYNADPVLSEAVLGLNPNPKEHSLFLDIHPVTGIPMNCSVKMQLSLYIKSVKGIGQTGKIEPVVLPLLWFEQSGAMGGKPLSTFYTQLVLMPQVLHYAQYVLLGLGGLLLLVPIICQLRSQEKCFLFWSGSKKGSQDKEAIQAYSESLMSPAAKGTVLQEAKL
SWI/SNF-related matrix-associated actin-dependent regulator of chromatin subfamily A member 2, sequence (P51531 whole entry): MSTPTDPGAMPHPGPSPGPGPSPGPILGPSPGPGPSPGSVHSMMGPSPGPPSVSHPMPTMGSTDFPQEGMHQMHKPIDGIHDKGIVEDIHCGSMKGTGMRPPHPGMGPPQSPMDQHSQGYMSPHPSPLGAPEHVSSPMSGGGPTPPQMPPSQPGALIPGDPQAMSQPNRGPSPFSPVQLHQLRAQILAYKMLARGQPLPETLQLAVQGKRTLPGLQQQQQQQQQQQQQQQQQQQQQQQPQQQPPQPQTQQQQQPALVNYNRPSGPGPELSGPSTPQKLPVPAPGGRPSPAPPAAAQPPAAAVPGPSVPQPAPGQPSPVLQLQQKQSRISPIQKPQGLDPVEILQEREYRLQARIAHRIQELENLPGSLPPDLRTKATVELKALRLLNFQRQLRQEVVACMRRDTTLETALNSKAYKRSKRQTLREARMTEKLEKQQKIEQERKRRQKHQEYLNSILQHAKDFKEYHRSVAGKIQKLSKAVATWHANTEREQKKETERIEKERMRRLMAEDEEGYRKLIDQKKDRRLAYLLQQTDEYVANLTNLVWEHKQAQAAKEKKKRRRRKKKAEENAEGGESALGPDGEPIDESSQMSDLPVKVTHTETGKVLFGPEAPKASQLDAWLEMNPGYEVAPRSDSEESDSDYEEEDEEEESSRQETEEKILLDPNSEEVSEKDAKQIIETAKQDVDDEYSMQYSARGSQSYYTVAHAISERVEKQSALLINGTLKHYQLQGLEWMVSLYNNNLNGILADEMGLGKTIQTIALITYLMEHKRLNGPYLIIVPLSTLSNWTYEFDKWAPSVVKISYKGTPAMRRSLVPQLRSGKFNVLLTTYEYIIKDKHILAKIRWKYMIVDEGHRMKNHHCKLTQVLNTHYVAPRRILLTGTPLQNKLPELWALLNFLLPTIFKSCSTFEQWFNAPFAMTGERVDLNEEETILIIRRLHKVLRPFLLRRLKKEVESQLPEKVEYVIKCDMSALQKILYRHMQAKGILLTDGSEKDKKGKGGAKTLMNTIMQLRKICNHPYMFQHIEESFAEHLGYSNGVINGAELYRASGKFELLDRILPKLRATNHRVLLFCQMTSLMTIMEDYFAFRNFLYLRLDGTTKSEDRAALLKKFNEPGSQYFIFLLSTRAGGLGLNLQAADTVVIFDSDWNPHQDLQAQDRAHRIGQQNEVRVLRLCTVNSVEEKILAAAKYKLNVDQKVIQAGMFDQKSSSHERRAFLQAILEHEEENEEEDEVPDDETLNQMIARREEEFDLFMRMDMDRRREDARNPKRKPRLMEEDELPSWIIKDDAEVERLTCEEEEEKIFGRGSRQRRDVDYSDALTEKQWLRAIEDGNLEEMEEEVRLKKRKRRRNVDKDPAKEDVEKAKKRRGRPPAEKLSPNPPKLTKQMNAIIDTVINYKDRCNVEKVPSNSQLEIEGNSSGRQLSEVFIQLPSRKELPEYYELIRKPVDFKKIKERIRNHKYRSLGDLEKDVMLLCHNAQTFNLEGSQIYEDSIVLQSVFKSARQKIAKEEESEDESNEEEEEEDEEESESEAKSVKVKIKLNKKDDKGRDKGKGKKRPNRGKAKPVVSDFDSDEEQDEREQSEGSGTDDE

Which EC50 [1] does the source give for O=C1C=C(c2cccs2)C[C@H](c2ccccc2)[C@H]1n1nnc([N+](=O)[O-])n1 here?
The EC50 was 3.85 µM (inconclusive).

And the AC50 [2]?
The AC50 was 0.835 µM (active).

What about the AC50 [3] of the same compound?
The AC50 was 7.95 µM (active).

And the EC50 [4]?
Its EC50 is > 91.2 µM (inactive).

What about the AC50 [5] of the same compound?
Its AC50 is 4.33 µM (active).

And the EC50 [6]?
The EC50 was 5.51 µM (inconclusive).

And the EC50 [7]?
The EC50 was 10.3 µM (inconclusive).

What about the EC50 [8] of the same compound?
Its EC50 is 0.242 µM (active).

What about the EC50 [9] of the same compound?
The EC50 was 9.02 µM (inconclusive).

What about the EC50 [10] of the same compound?
Its EC50 is > 91.2 µM (inactive).

For Cc1ccccc1N(C(=O)c1snc(C(N)=O)c1N)C(C(=O)NC1CCCCC1)c1ccc(O)cc1 (stereo not given), which EC50 [11] is on record?
The EC50 was > 120 µM (not active).

What about the EC50 [12] of the same compound?
Its EC50 is > 29.9 µM (inactive).

What about the IC50 [13] of the same compound?
The IC50 was 3.16 µM (active).

And the EC50 [14]?
Its EC50 is 12.8 µM (active).

What about the EC50 [15] of the same compound?
Its EC50 is > 29.9 µM (inactive).

What about the IC50 [16] of the same compound?
The IC50 was > 29.9 µM (inactive).

And the EC50 [17]?
Its EC50 is 77.7 µM (active).

Which results are given for CC.CCCCCCC1CCC/C1=N\NC(N)=S (stereo not given)?
AC50 [18]: 2.08 µM (active); AC50 [19]: 0.00737 µM (active); AC50 [20]: 0.005 µM (active)

Which AC50 [21] does the source give for COc1ccc(S(=O)(=O)Nc2ccc3c(c2)C(=O)N([C@@H](C)CO)C[C@H](C)[C@H](CN(C)C(=O)Nc2ccc(C(F)(F)F)cc2)OCCCC[C@H](C)O3)cc1 here?
The AC50 was 24.9 µM (active).

With Cc1onc(-c2ccccc2)c1C(=O)NNC(=S)NC(=O)c1ccc2c(c1)OCO2 as the compound, how does the EC50 [22] read?
The EC50 was 4.22 µM (active).

What about the IC50 [23] of the same compound?
Its IC50 is 56.6 µM (inactive).

What about the EC50 [24] of the same compound?
Its EC50 is 0.978 µM (active).

And the EC50 [25]?
Its EC50 is 4.64 µM (active).
